# Experimental data: patent US11567065B2, “Measuring frequency of pathogen-specific T cells in peripheral blood” (THOMAS JEFFERSON UNIVERSITY, priority 2015, dated 2023)
# System: 68A62 CTL
# Assay: CaFlux assay: Ca2+ flux in monolayer of 68A62 CTL
# Type: cell-based, human
# Conditions: FIG. 4A
# Method: 10^6 cells in 1 ml of PBS were loaded with Fluo-4 (Life Technologies) at 2-4 μM for 30 min at 37° C. in the presence of 0.02% pluoronic acid F-127 and 4 mM Probenecid. The cells were washed free of unreacted reagents and incubated at 37° C. for additional 30 min. The cells were then re-suspended in the assay buffer (Dulbecco's PBS containing 1 mM CaCl2, 2 mM MgCl2, 5 mM glucose, and 0.025% BSA) and used for Ca2+ flux analysis.
# Glass bottom of 96 well MatTec plates was covered with poly-L-Lysine (Sigma, mol wt>300,000) at 0.1 mg/ml for 1 hr at room temperature. After washing with DPBS and dd water, TS2/4 non-blocking mAb specific for LFA-1 were added to the plate at concentration 10 μg/ml overnight & 4° C. The wells were washed with DPBS, and 3×10^5 Fluo-4-labeled T cells in 100 μl of the assay buffer were added to each well. The plates were centrifuged for 700 g for one minute and were incubated for 30 min at room temperature prior to the imaging. […] The quality of T cell monolayer was assessed using bright field microscopy.
# To identify responding T cells we imaged T-cell monolayers before (background measurement) and after (response) addition of the stimulatory signal such as agonist peptide. […] The average intensity of images prior and after the T-cell stimulation at various time points and the numbers of individual responding cells per imaging field were determined by MetaMorph software.
sequence,measurement,value
ILKEPVHGV (IV9),time to maximum of Ca2+ increase following stimulation,2 to 3 min
